The structures appear in SMILES notation. A value given as a limit tells only on which side of the number the result lay.

The experiment concerns the target T1, human TGR5 (Homo sapiens, UniProt Q8TDU6).
T1 construct: expressed in transfected cells
T1 sequence (Q8TDU6 1-330): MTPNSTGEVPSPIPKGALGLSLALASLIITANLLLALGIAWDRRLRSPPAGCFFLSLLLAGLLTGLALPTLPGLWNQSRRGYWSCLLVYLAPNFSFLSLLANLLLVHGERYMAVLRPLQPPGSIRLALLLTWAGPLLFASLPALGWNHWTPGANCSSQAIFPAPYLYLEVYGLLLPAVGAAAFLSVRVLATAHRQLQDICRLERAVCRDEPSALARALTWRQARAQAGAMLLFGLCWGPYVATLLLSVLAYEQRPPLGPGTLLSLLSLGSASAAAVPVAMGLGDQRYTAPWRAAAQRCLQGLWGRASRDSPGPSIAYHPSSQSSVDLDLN
Nature of the experiment: cAMP production assay in HEK293 cells stably expressing TGR5 (LANCE cAMP, TR-FRET). It is filed as cell-based. As to conditions: stimulated with test compounds for 30 minutes, 1 mM IBMX, read-out: cAMP Production in 293-TGR5 Cells. The procedure: HEK293 cells stably expressing TGR5 (HEK293-TGR5) were established by stably transfecting HEK-293 cells with an expression vector (pcDNA 3.1, Invetrogen) inserted with human TGR5 cDNA using Fugene6 (Roche, Indianapolis, Ind.) according to conventional methods. Cells were grown in DMEM (invitrogen, Carlsbad, Calif.) supplemented with 10% FBS, 1% penicillin/streptomycin under geneticin selection. The presence of TGR5 transcripts in these cells was confirmed using branched DNA (bDNA, Genospectra, Inc., Fremont Calif.) following the manufacturer's protocol and using specific probes for human TGR5. cAMP production assay was performed in high throughput 1536 well format using LANCE cAMP detection kit (Perkin Elmer Inc., Boston, Mass.) according to the manufacturer's protocol. Briefly, HEK293-TGR5 cells were harvested using non-enzymatic cell dissociation buffer (Invitrogen, Carlsbad, Calif.) and suspended in DMEM supplemented with 0.1% FBS at a density of 800,000 cells/ml. Alexa antibody was added to the cell suspension, and 4 ul of the mixture was dispensed in white opaque tissue culture treated Greiner 1536 well plates (USA Scientific, Inc., Ocala, Fla.). After an overnight incubation at 37 C in an atmosphere of 10% CO2 and 95% humidity, 1 ul of 5 mM IBMX (Sigma, St. Louis, Mo.) solution in DMEM was dispensed for a final concentration of 1 mM. Cells were then stimulated with test compounds for 30 minutes, after which time 5 ul of detection reagent was added and incubated for 1-7 hrs at room temperature. TR-FRET signal was detected using the Viewlux (Perkin Elmer Inc., Boston Mass.). EC50 values were determined using Graph Pad Prizm analysis (GraphPad Software, Inc). The EC50 values for a wide range of bile acids generated from this assay were in agreement with the values published in the scientific literature. […] The symbol (+) denotes an EC50 value of ≦10 μM while the symbol (−) denotes an EC50 value of >10 μM (see Table 1).
(Changes in cAMP serve as a functional read-out for many G protein-coupled receptors.)
Take `O=c1c2nccnc2nc(-c2ccc(F)cc2)n1NCc1ccc(Cl)cc1F` [Example 46, 3-{[(4-Chloro-2-fluorophenyl)methyl]amino}-2-(4-fluorophenyl)-3,4-dihydropteridin-4-one]: the EC50 was at most 10 µM.

Turning to `COc1cncc(-c2nc3nccnc3c(=O)n2NCc2ccc(Cl)cc2)c1` [Example 29, 3-{[(4-Chlorophenyl)methyl]amino}-2-(5-methoxypyridin-3-yl)-3,4-dihydropteridin-4-one], the EC50 was at most 10 µM.

With `COc1cc(-c2nc3ncccc3c(=O)n2NCc2ccc(Br)cc2)ccc1C` [Example 13, 3-{[(4-Bromophenyl)methyl]amino}-2-(3-methoxy-4-methylphenyl)-3H,4H-pyrido[2,3-d]pyrimidin-4-one], the EC50 was at most 10 µM.

Regarding `O=c1c2cccnc2nc(-c2ccc(F)cc2)n1NCc1ccc(F)c(F)c1` [Example 12, 3-{[(3,4-Difluorophenyl)methyl]amino}-2-(4-fluorophenyl)-3H,4H-pyrido[2,3-d]pyrimidin-4-one], the EC50 is at most 10 µM.

Consider `O=c1c2sccc2nc(-c2ccc(F)cc2)n1NCc1ccc(Cl)c(Cl)c1` [Example 36, 3-{[(3,4-Dichlorophenyl)methyl]amino}-2-(4-fluorophenyl)-3H,4H-thieno[3,2-d]pyrimidin-4-one], for which the EC50 was at most 10 µM.

Take `Cn1cnc2nc(-c3ccc(F)cc3)n(NCc3ccc(Br)cc3)c(=O)c21` [Example 38, 1-{[(4-Bromophenyl)methyl]amino}-2-(4-fluorophenyl)-7-methyl-6,7-dihydro-1H-purin-6-one]: the EC50 is at most 10 µM.

In the case of `O=c1c2c(nc(-c3ccc(F)cc3)n1NCc1ccc(Br)cc1)CNCC2` [Example 51, 3-{[(4-Bromophenyl)methyl]amino}-2-(4-fluorophenyl)-3H,4H,5H,6H,7H,8H-pyrido[3,4-d]pyrimidin-4-one], the EC50 was over 10 µM.

As for `COc1cncc(-c2nc3cnccc3c(=O)n2NCc2ccc(Cl)cc2)c1` [Example 16, 3-{[(4-Chlorophenyl)methyl]amino}-2-(5-methoxypyridin-3-yl)-3H,4H-pyrido[3,4-d]pyrimidin-4-one], the EC50 is at most 10 µM.

Turning to `O=c1c2cccnc2nc(-c2ccc(O)cc2)n1NCc1ccc(Br)cc1` [Example 6, 3-{[(4-Bromophenyl)methyl]amino}-2-(4-hydroxyphenyl)-3H,4H-pyrido[2,3-d]pyrimidin-4-one], the EC50 was at most 10 µM.

As for `COc1cncc(-c2nc3ccsc3c(=O)n2NCC2CCC2)c1` [Example 28, 3-[(Cyclobutylmethyl)amino]-2-(5-methoxypyridin-3-yl)-3H,4H-thieno[3,2-d]pyrimidin-4-one], the EC50 was at most 10 µM.

For `O=c1c2cccnc2nc(-c2ccc(F)cc2)n1NCc1ccc(Br)cc1` [Example 4, 3-{[(4-Bromophenyl)methyl]amino}-2-(4-fluorophenyl)-3H,4H-pyrido[2,3-d]pyrimidin-4-one], the EC50 is at most 10 µM.

Take `COc1cc(-c2nc3ncccc3c(=O)n2NCc2ccc(Cl)cc2)ccc1C` [Example 14, 3-{[(4-Chlorophenyl)methyl]amino}-2-(3-methoxy-4-methylphenyl)-3H,4H-pyrido[2,3-d]pyrimidin-4-one]: the EC50 was at most 10 µM.

As for `Cc1cc(-c2nc3cnccc3c(=O)n2NCc2ccc(Cl)cc2)ccc1N` [Example 20, 2-(4-Amino-3-methylphenyl)-3-{[(4-chlorophenyl)methyl]amino}-3H,4H-pyrido[3,4-d]pyrimidin-4-one], the EC50 is at most 10 µM.

On to `O=c1c2nccnc2nc(-c2ccc(F)cc2)n1NCc1ccc(Cl)cc1` [Example 43, 3-{[(4-Chlorophenyl)methyl]amino}-2-(4-fluorophenyl)-3,4-dihydropteridin-4-one], for which the EC50 was at most 10 µM.

In the case of `COc1cccc(-c2nc3ncccc3c(=O)n2NCc2ccc(Cl)cc2)c1` [Example 3, 3-{[(4-Chlorophenyl)methyl]amino}-2-(3-methoxyphenyl)-3H,4H-pyrido[2,3-d]pyrimidin-4-one], the EC50 was at most 10 µM.

As for `N#Cc1ccc(CNn2c(-c3ccc(F)cc3)nc3nccnc3c2=O)cc1` [Example 44, 4-({[2-(4-Fluorophenyl)-4-oxo-3,4-dihydropteridin-3-yl]amino}methyl)benzonitrile], the EC50 was at most 10 µM.

As for `Cn1ncc2nc(-c3ccc(F)cc3)n(NCc3ccc(Cl)cc3)c(=O)c21` [Example 41, 6-{[(4-Chlorophenyl)methyl]amino}-5-(4-fluorophenyl)-1-methyl-1H,6H,7H-pyrazolo[4,3-d]pyrimidin-7-one], the EC50 was at most 10 µM.

As to `O=c1c2sccc2nc(-c2ccc(F)cc2)n1NCc1ccc(Cl)cc1` [Example 37, 3-{[(4-Chlorophenyl)methyl]amino}-2-(4-fluorophenyl)-3H,4H-thieno[3,2-d]pyrimidin-4-one], the EC50 is at most 10 µM.

Consider `Cc1cc(-c2nc3cnccc3c(=O)n2NCc2ccc(Cl)cc2)ccc1[N+](=O)[O-]` [Example 19, 3-{[(4-Chlorophenyl)methyl]amino}-2-(3-methyl-4-nitrophenyl)-3H,4H-pyrido[3,4-d]pyrimidin-4-one], for which the EC50 is at most 10 µM.

With `O=c1c2ccncc2nc(-c2cncc(Cl)c2)n1NCc1ccc(Cl)cc1` [Example 18, 3-{[(4-Chlorophenyl)methyl]amino}-2-(5-chloropyridin-3-yl)-3H,4H-pyrido[3,4-d]pyrimidin-4-one], the EC50 was at most 10 µM.

`COc1cncc(-c2nc3sccc3c(=O)n2NCc2ccc(Cl)cc2)c1` [Example 34, 3-{[(4-Chlorophenyl)methyl]amino}-2-(5-methoxypyridin-3-yl)-3H,4H-thieno[2,3-d]pyrimidin-4-one]: the EC50 is at most 10 µM.

As to `Cc1cncc(-c2nc3nccnc3c(=O)n2NCc2ccc(C#N)cc2)c1` [Example 48, 4-({[2-(5-Methylpyridin-3-yl)-4-oxo-3,4-dihydropteridin-3-yl]amino}methyl)benzonitrile], the EC50 is at most 10 µM.

Consider `COc1cc(-c2nc3cnccc3c(=O)n2NCc2ccc(Cl)cc2)ccc1O` [Example 22, 3-{[(4-Chlorophenyl)methyl]amino}-2-(4-hydroxy-3-methoxyphenyl)-3H,4H-pyrido[3,4-d]pyrimidin-4-one], for which the EC50 is at most 10 µM.

On to `COc1cncc(-c2nc3ccsc3c(=O)n2NCc2ccc(Cl)cc2)c1` [Example 27, 3-{[(4-Chlorophenyl)methyl]amino}-2-(5-methoxypyridin-3-yl)-3H,4H-thieno[3,2-d]pyrimidin-4-one], for which the EC50 is at most 10 µM.

Turning to `O=c1c2cncnc2nc(-c2ccc(F)cc2)n1NCc1ccc(Cl)cc1` [Example 30, 3-{[(4-Chlorophenyl)methyl]amino}-2-(4-fluorophenyl)-3H,4H-pyrimido[4,5-d][1,3]diazin-4-one], the EC50 was at most 10 µM.

In the case of `O=c1c2ccncc2nc(-c2ccc(F)cc2)n1NCc1ccc(Br)cc1` [Example 17, 3-{[(4-Bromophenyl)methyl]amino}-2-(4-fluorophenyl)-3H,4H-pyrido[3,4-d]pyrimidin-4-one], the EC50 was at most 10 µM.

Turning to `O=c1c2cccnc2nc(-c2ccccc2F)n1NCc1ccc(Cl)cc1` [Example 2, 3-{[(4-Chlorophenyl)methyl]amino}-2-(2-fluorophenyl)-3H,4H-pyrido[2,3-d]pyrimidin-4-one], the EC50 was at most 10 µM.

As for `O=c1c2cccnc2nc(-c2cccnc2)n1NCc1ccc(Cl)cc1` [Example 7, 3-{[(4-Chlorophenyl)methyl]amino}-2-(pyridin-3-yl)-3H,4H-pyrido[2,3-d]pyrimidin-4-one], the EC50 was at most 10 µM.

For the origin of these results see patent US20090105124A1, “HETEROCYCLIC MODULATORS OF TGR5” (Kalypsys, Inc., priority 2007, published 2009).
